Each structure is given as a SMILES string. Where two headings read alike, the source gives them in different places.

The results in this text go back to patent publication US20170087125A1, “FLAVONOID COMPOSITIONS FOR THE TREATMENT OF CANCER” (Augusta University Research Institute, Inc., priority 2015, published 2017).

The nature of the data set: Pharmacokinetics in rat plasma after oral and intravenous administration. The data set is classed as in vivo, Sprague Dawley rats. The settings on record: for half-life / AUC / Cmax / Tmax: male, Sprague-Dawley, rat, plasma, 100 mg/kg; for half-life: read-out: t1/2 half-life (converted); for Cmax / Tmax: oral; for Bioavailabilty: rat plasma, ProFine 100 mg/kg (n = 3), oral vs IV. Here is the method:
Blood samples were collected at 9 time points, i.e., 0 min, 15 min, 30 min, 60 min, 2 h, 4 h, 8 h, 12 h and 24 h. Plasma levels of Luteolin, Quercetin and Kaempferol were analyzed using HPLC. […]

One may read the Cmax as the highest concentration seen after dosing. As usually defined, the Tmax is the time from dosing to the highest level. In the case of `O=c1cc(-c2ccc(O)c(O)c2)oc2cc(O)cc(O)c12` [Ingredient 1, 3′,4′,5,7-tetrahydroxyflavone], the half-life was 2.26 h, the Cmax is 127 ng/mL, the Tmax was 1 h and the Bioavailabilty was found to be 1.30%. Further, for the setting “iv, read-out: AUC0.24 (IV)”, the AUC stood at 90100 ng·h/mL. In addition, the AUC (po, read-out: AUC0.24 (Oral)) is 1170 ng·h/mL.
On to `O=c1c(O)c(-c2ccc(O)c(O)c2)oc2cc(O)cc(O)c12` [Ingredient 2, 3,3′,4′5,7-Penthydroxyflavone], for which the half-life was 1.71 h, the Cmax was 51.9 ng/mL, the Tmax is 1 h and the Bioavailabilty is 0.91%. The AUC (iv, read-out: AUC0.24 (IV)) is 27200 ng·h/mL. In addition, the AUC (po, read-out: AUC0.24 (Oral)) came out at 248 ng·h/mL.
For the compound `O=c1c(O)c(-c2ccc(O)cc2)oc2cc(O)cc(O)c12` [Ingredient 3, 3,5,7-trihydroxy-2-(4-hydroxyphenyl)-4H-1-benzopyran-4-one], the half-life is 2.45 h, the Cmax is 165 ng/mL, the time of peak concentration (Tmax) is 4 h and the Bioavailabilty is reported as 2.89%. In addition, the AUC (iv, read-out: AUC0.24 (IV)) was 93800 ng·h/mL. For the setting “po, read-out: AUC0.24 (Oral)”, the AUC was determined as 2710 ng·h/mL.
